Converted amounts (≈) assume the structure as drawn.
Tests used:
Type in all cases: cell-based
[1] = test system: K. pneumoniae; assay: Broth dilution MIC determination (CLSI) against K. pneumoniae strains
Source text: (§1) Minimum inhibitory concentrations (MICs) for macrolides described herein have been determined for unique strains of S. aureus, S. pneumoniae, S. pyogenes, E. faecalis, E. coli, A. baumannii, K. pneumoniae, P. aeruginosa, and H. influenzae, including several multidrug-resistant strains, with a special focus on macrolide resistant mechanisms. Azithromycin and solithromycin were included as control compounds. CLSI standard procedures for broth dilution MIC determination were used.

[2] = test system: S. aureus; assay: Broth dilution MIC determination (CLSI) against S. aureus strains
Source text: as §1, with “used. Data for exemplary compounds described herein is shown in Tables M1-M7 and in Tables N1-N4.” for “used.”

[3] = test system: A. baumannii; assay: Broth dilution MIC determination (CLSI) against A. baumannii strains
Source text: as §1, with “used. Data for exemplary compounds described herein is shown in Tables M1-M7 and in Tables N1-N4.” for “used.”

[4] = test system: E. coli; assay: Broth dilution MIC determination (CLSI) against E. coli strains
Source text: as §1, with “used. Data for exemplary compounds described herein is shown in Tables M1-M7 and in Tables N1-N4.” for “used.”

[5] = test system: P. aeruginosa; assay: Broth dilution MIC determination (CLSI) against P. aeruginosa strains
Source text: as §1, with “used. Data for exemplary compounds described herein is shown in Tables M1-M7 and in Tables N1-N4.” for “used.”

[6] = K. pneumoniae ATCC 10031, strain MP-14 (Table N4)
[7] = K. pneumoniae Clinical, strain MP-548 (Table N4)
[8] = K. pneumoniae Clinical-MDR, strain MP-546 (Table N4)
[9] = S. aureus ATCC29213, strain MP-12 (Table N4)
[10] = S. aureus BAA 977 iErm, strain MP-17 (Table N4)
[11] = S. aureus Clinical-cErm, strain MP-513 (Table N4)
[12] = S. aureus USA300-msr(a), strain MP-549 (Table N4)
[13] = A. baumannii ATCC 19606, strain MP-15 (Table N4)
[14] = A. baumannii Clinical-AZT low, strain MP-577 (Table N4)
[15] = A. baumannii Clinical-MDR, strain MP-576 (Table N4)
[16] = E. coli ATCC25922, strain MP-4 (Table N4)
[17] = E. coli Clinical, strain MP-541 (Table N4)
[18] = E. coli clinical-cErmB, strain MP-532 (Table N4)
[19] = E. coli tolC, strain MP-9 (Table N4)
[20] = P. aeruginosa ATCC27853, strain MP-3 (Table N4)
[21] = P. aeruginosa PAO1, strain MP-7 (Table N4)
[22] = P. aeruginosa mex-oprM-deletion, strain MP-8 (Table N4)

Row | Compound | MIC [1, 6] [µg/mL] | MIC [1, 7] [µg/mL] | MIC [1, 8] [µg/mL] | MIC [2, 9] [µg/mL] | MIC [2, 10] [µg/mL] | MIC [2, 11] [µg/mL] | MIC [2, 12] [µg/mL] | MIC [3, 13] [µg/mL] | MIC [3, 14] [µg/mL] | MIC [3, 15] [µg/mL] | MIC [4, 16] [µg/mL] | MIC [4, 17] [µg/mL] | MIC [4, 18] [µg/mL] | MIC [4, 19] [µg/mL] | MIC [5, 20] [µg/mL] | MIC [5, 21] [µg/mL] | MIC [5, 22] [µg/mL]
1 | CCC1OC(=O)C(C)C(=O)C(C)C(OC2OC(C)CC(N(C)CCO)C2O)C(C)(OC)CC(C)CN(C)C(C)C2N(CCCCn3cc(-c4cccc(N)c4)nn3)C(=O)OC12C (stereo not shown) [FSM-120419] | 16 (≈ 18.3 µM) | >64 | >64 | 32 (≈ 36.7 µM) | 32 (≈ 36.7 µM) | >64 | 32 (≈ 36.7 µM) | >64 | >64 | >64 | >64 | >64 | >64 | 4 (≈ 4.59 µM) | >64 | >64 | >64
2 | CCC1OC(=O)C(C)C(=O)C(C)C(OC2OC(C)CC(N3CCC(O)C3)C2O)C(C)(OC)CC(C)CNC(C)C2N(CCCCn3cc(-c4cccc(N)c4)nn3)C(=O)OC12C (stereo not shown) [FSM-120417] | 4 (≈ 4.6 µM) | 64 (≈ 73.6 µM) | >64 | 32 (≈ 36.8 µM) | 64 (≈ 73.6 µM) | >64 | 64 (≈ 73.6 µM) | 32 (≈ 36.8 µM) | 32 (≈ 36.8 µM) | >64 | 16 (≈ 18.4 µM) | 16 (≈ 18.4 µM) | >64 | 2 (≈ 2.3 µM) | >64 | >64 | 32 (≈ 36.8 µM)
3 | CCC1OC(=O)C(C)C(=O)C(C)C(OC2OC(C)CC(N(C)CCCS(C)(=O)=O)C2O)C(C)(OC)CC(C)CNC(C)C2N(CCCCn3cc(-c4cccc(N)c4)nn3)C(=O)OC12C (stereo not shown) [FSM-120420] | 16 (≈ 17.1 µM) | >64 | >64 | 32 (≈ 34.3 µM) | 32 (≈ 34.3 µM) | >64 | 64 (≈ 68.5 µM) | 32 (≈ 34.3 µM) | 64 (≈ 68.5 µM) | >64 | 64 (≈ 68.5 µM) | 32 (≈ 34.3 µM) | >64 | 2 (≈ 2.14 µM) | >64 | >64 | 64 (≈ 68.5 µM)
4 | CCC1OC(=O)C(C)C(=O)C(C)C(OC2OC(C)CC(Nc3cnccn3)C2O)C(C)(OC)CC(C)CNC(C)C2N(CCCCn3cc(-c4cccc(N)c4)nn3)C(=O)OC12C (stereo not shown) [FSM-120410] | >64 | >64 | >64 | >64 | >64 | >64 | >64 | >64 | >64 | >64 | >64 | >64 | >64 | >64 | >64 | >64 | >64
5 | CCC1OC(=O)C(C)C(=O)C(C)C(OC2OC(C)CC(N(C)CCO)C2O)C(C)(OC)CC(C)CNC(C)C2N(CCCCn3cc(-c4cccc(N)c4)nn3)C(=O)OC12C (stereo not shown) [FSM-120418] | 8 (≈ 9.32 µM) | 64 (≈ 74.6 µM) | >64 | 16 (≈ 18.6 µM) | 16 (≈ 18.6 µM) | >64 | 16 (≈ 18.6 µM) | 16 (≈ 18.6 µM) | 32 (≈ 37.3 µM) | >64 | 8 (≈ 9.32 µM) | 8 (≈ 9.32 µM) | >64 | 1 (≈ 1.17 µM) | >64 | >64 | 32 (≈ 37.3 µM)
